Where “and” joins values, the source holds several entries; their conditions need not be identical. Equal values may be shown once.
Columns and labels:
[1] = tested on: activity of analgesic drugs; experiment: Hot-plate test, potentiation of analgesic drugs (Experiment 2); assay type: in vivo, rats
Procedure, shortened: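 Male rats of about 150 g, not fasted, five per group, were placed on a plate held at 55°±1° C. Licking or jumping latency was recorded before and at 10–90 min after dosing, with a 30 s cut-off. A positive response meant at least a doubling of reaction time, reported as positives/treated.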

[2] = tested on: enkephalinamide (DALA) analgesia; experiment: Potentiation of DALA (enkephalinamide) analgesia, i.c.v., Tail Flick Test (Experiment 4); assay type: in vivo, rats; design: scale not given here; settings: DALA 10 + compound 0.01 mg/kg (ICV), 0.01 mg/kg
Description: Experiment No. 4: Potentiation of the analgesic activities of enkephalins induced by some of the compounds of the invention. […]

[3] = tested on: CCK-8 induced contraction of guinea pig gall bladder; experiment: Anti-CCK activity on gall bladder strips in vitro; settings: CCK-8 10 ng/ml
Procedure, shortened: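 CCK-8 at 10 ng/ml drove isometric contraction of guinea pig gall bladder strips held at 32 °C in oxygenated Krebs (O2/CO2 95:5). Antagonism was measured at graded compound concentrations and reported as ED50, in μg/ml, for 50% inhibition of the contraction.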

[4] = tested on: CCK-8 induced contraction of guinea pig gall bladder; experiment: Anti-CCK-8 activity on gall bladders in situ; assay type: in vivo
[5] = tested on: intestinal transit of carbon; experiment: Anti-spastic activity, vegetable carbon intestinal transit test; assay type: in vivo, mice; settings: Mus musculus, ip; read-out: antispastic activity ED50 (dose reducing intestinal transit of carbon by 50%)
Description: The anti-spastic activity which the present compounds exert on the entire digestive system is also notable. Measured in mice with the vegetable carbon test (rate of transit through the stomach and the intestine), this activity is illustrated in the following table.
claimed administered intraperitoneally in mice. Values
expressed as the ED 50 in mg/kg, that is the dose which
reduces the intestinal transit of carbon by 50%

[6] = tested on: tolerance induced by morphine; experiment: Antagonism to development of tolerance to repeated morphine HCl, Tail Flick Test (Experiment 5); settings: compound 10 mg/kg + morphine 5 mg/kg i.p.

CCCN(CCC)C(=O)C(CCC(=O)O)NC(=O)c1ccc(C)c(C)c1 (stereo not drawn) [Compound C-30]
TOTAL positives ([1]; oxyphenylbutazone 50 + compound 3 mg/kg i.p.): 11 x/30 | positive responses over number treated ([1]; oxyphenylbutazone 50 + compound 3 mg/kg i.p., 10'): 1/5 | positive responses over number treated ([1]; oxyphenylbutazone 50 + compound 3 mg/kg i.p., 20'): 1/5 | positive responses over number treated ([1]; oxyphenylbutazone 50 + compound 3 mg/kg i.p., 30'): 3/5 | positive responses over number treated ([1]; oxyphenylbutazone 50 + compound 3 mg/kg i.p., 45'): 2/5 | positive responses over number treated ([1]; oxyphenylbutazone 50 + compound 3 mg/kg i.p., 60'): 2/5 | positive responses over number treated ([1]; oxyphenylbutazone 50 + compound 3 mg/kg i.p., 90'): 2/5 | TOTAL positives ([1]; oxyphenylbutazone 50 + compound 10 mg/kg i.p.): 12 x/30 | positive responses over number treated ([1]; oxyphenylbutazone 50 + compound 10 mg/kg i.p., 10'): 1/5 | positive responses over number treated ([1]; oxyphenylbutazone 50 + compound 10 mg/kg i.p., 20'): 2/5 | positive responses over number treated ([1]; oxyphenylbutazone 50 + compound 10 mg/kg i.p., 30'): 2/5 | positive responses over number treated ([1]; oxyphenylbutazone 50 + compound 10 mg/kg i.p., 45'): 3/5 | positive responses over number treated ([1]; oxyphenylbutazone 50 + compound 10 mg/kg i.p., 60'): 3/5 | positive responses over number treated ([1]; oxyphenylbutazone 50 + compound 10 mg/kg i.p., 90'): 2/5 | TOTAL positives ([1]; oxyphenylbutazone 50 + compound 30 mg/kg i.p.): 20 x/30 | positive responses over number treated ([1]; oxyphenylbutazone 50 + compound 30 mg/kg i.p., 10'): 2/5 | positive responses over number treated ([1]; oxyphenylbutazone 50 + compound 30 mg/kg i.p., 20'): 3/5 | positive responses over number treated ([1]; oxyphenylbutazone 50 + compound 30 mg/kg i.p., 30'): 4/5 | positive responses over number treated ([1]; oxyphenylbutazone 50 + compound 30 mg/kg i.p., 45'): 4/5 | positive responses over number treated ([1]; oxyphenylbutazone 50 + compound 30 mg/kg i.p., 60'): 4/5 | positive responses over number treated ([1]; oxyphenylbutazone 50 + compound 30 mg/kg i.p., 90'): 3/5 | TOTAL positives ([1]; propoxyphene 10 + compound 0.3 mg/kg i.p.): 11 X/30 | positive responses over number treated ([1]; propoxyphene 10 + compound 0.3 mg/kg i.p., 10'): 2/5 | positive responses over number treated ([1]; propoxyphene 10 + compound 0.3 mg/kg i.p., 20'): 1/5 | positive responses over number treated ([1]; propoxyphene 10 + compound 0.3 mg/kg i.p., 30'): 3/5 | positive responses over number treated ([1]; propoxyphene 10 + compound 0.3 mg/kg i.p., 45'): 3/5 | positive responses over number treated ([1]; propoxyphene 10 + compound 0.3 mg/kg i.p., 60'): 2/5 | positive responses over number treated ([1]; propoxyphene 10 + compound 0.3 mg/kg i.p., 90'): 0/5 | TOTAL positives ([1]; propoxyphene 10 + compound 1 mg/kg i.p.): 19 X/30 | positive responses over number treated ([1]; propoxyphene 10 + compound 1 mg/kg i.p., 10'): 3/5 | positive responses over number treated ([1]; propoxyphene 10 + compound 1 mg/kg i.p., 20'): 4/5 | positive responses over number treated ([1]; propoxyphene 10 + compound 1 mg/kg i.p., 30'): 4/5 | positive responses over number treated ([1]; propoxyphene 10 + compound 1 mg/kg i.p., 45'): 4/5 | positive responses over number treated ([1]; propoxyphene 10 + compound 1 mg/kg i.p., 60'): 2/5 | positive responses over number treated ([1]; propoxyphene 10 + compound 1 mg/kg i.p., 90'): 2/5 | TOTAL positives ([1]; propoxyphene 10 + compound 3 mg/kg i.p.): 25 X/30 | positive responses over number treated ([1]; propoxyphene 10 + compound 3 mg/kg i.p., 10'): 3/5 | positive responses over number treated ([1]; propoxyphene 10 + compound 3 mg/kg i.p., 20'): 5/5 | positive responses over number treated ([1]; propoxyphene 10 + compound 3 mg/kg i.p., 30'): 5/5 | positive responses over number treated ([1]; propoxyphene 10 + compound 3 mg/kg i.p., 45'): 5/5 | positive responses over number treated ([1]; propoxyphene 10 + compound 3 mg/kg i.p., 60'): 4/5 | positive responses over number treated ([1]; propoxyphene 10 + compound 3 mg/kg i.p., 90'): 3/5 | analgesic activity, Tail Flick ([2]; 10'): 58 and 59.1 | analgesic activity, Tail Flick ([2]; 20'): 60.8 and 67.8 | analgesic activity, Tail Flick ([2]; 30'): 77.0 and 86.0 | analgesic activity, Tail Flick ([2]; 45'): 66.4 and 83.3 | analgesic activity, Tail Flick ([2]; 60'): 48.8 and 83.3 | analgesic activity, Tail Flick ([2]; 90'): 45.0 and 55.1 | MEAN analgesic activity, Tail Flick ([2]; mean): 59.33 and 73.26 | ED50 (concentration antagonising 50% of contracting effect of CCK-8) [3]: 33.5 µg/mL | percentage inhibition of contracting effect of CCK-8 ([4]; 30 mg/kg i.v., single experiments): 82.1% and 92.5% and 79.5% | ED50 ([4]; Cavia porcellus, iv, CCK-8 10 ng/kg i.v., read-out: ED50 (inhibition of 50% of contracting effect of CCK-8)): 13.8 mg/kg | ED50 [5]: 77.7 mg/kg | percentage variation in latency time (Effect %) ([6]; 24 h): 66.53% and 67.27% | percentage variation in latency time (Effect %) ([6]; 48 h): 50.61% and 67.31% | percentage variation in latency time (Effect %) ([6]; 72 h): 47.53% and 56.04% | percentage variation in latency time (Effect %) ([6]; 96 h): 29.65% and 49.48% | percentage variation in latency time (Effect %) ([6]; 120 h): 34.24% and 34.34% | percentage variation in latency time (Effect %) ([6]; 144 h): 26.97% and 27.50% | percentage variation in latency time (Effect %) ([6]; time 0): 74.51% and 44.52%

From patent US4791215A, “Derivatives of glutamic acid and aspartic acid” (priority 1984, dated 1988)
